Assay results published in the supplement of paper PMC10307832.

Assays:
Experiment in all cases: relative viability (nuclei count vs DMSO), 5 days (fraction); higher = more cells survive
NCI-H1437 = system: NCI-H1437
How it was run: (§1)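 Relative viability is defined as nuclei in treated wells over nuclei in vehicle wells. Duplicate plates were run and medians reported. Lung cancer cell lines in 1536-well plates were dosed by pin tool one day after seeding, with one drug or with a fixed anchor-drug dose plus five library-drug doses (not always all listed) in √10 steps, and nuclei were counted after 5 days.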

HCC-366 = system: HCC-366
How it was run: as §1

HCC-44 = system: HCC-44
How it was run: as §1

NCI-H522 = system: NCI-H522
How it was run: as §1

NCI-H1623 = system: NCI-H1623
How it was run: as §1

A549 = system: A549
How it was run: as §1

NCI-H1299 = system: NCI-H1299
How it was run: as §1

NCI-H1703 = system: NCI-H1703
How it was run: as §1

Calu-6 = system: Calu-6
How it was run: as §1

EBC-1 = system: EBC-1
How it was run: as §1

IA-LM = system: IA-LM
How it was run: as §1

## C=C1C(=O)O[C@@H](CCCCCCCC)[C@@H]1C(=O)O [C-75] + N=C(N)NC(=N)NCCc1ccccc1 [Phenformin] (partner 250 µM)
NCI-H1437; first compound 0.08 µM
  relative viability: 0.322
NCI-H1437; first compound 0.253 µM
  relative viability: 0.323
NCI-H1437; first compound 0.8 µM
  relative viability: 0.302
NCI-H1437; first compound 2.53 µM
  relative viability: 0.284
NCI-H1437; first compound 8 µM
  relative viability: 0.296
HCC-366; first compound 0.08 µM
  relative viability: 0.586
HCC-366; first compound 0.253 µM
  relative viability: 0.634
HCC-366; first compound 0.8 µM
  relative viability: 0.61
HCC-366; first compound 8 µM
  relative viability: 0.571
HCC-44; first compound 0.08 µM
  relative viability: 0.294
HCC-44; first compound 0.253 µM
  relative viability: 0.185
HCC-44; first compound 0.8 µM
  relative viability: 0.176
HCC-44; first compound 2.53 µM
  relative viability: 0.157
HCC-44; first compound 8 µM
  relative viability: 0.142
NCI-H522; first compound 0.08 µM
  relative viability: 0.61
NCI-H522; first compound 0.253 µM
  relative viability: 0.382
NCI-H522; first compound 0.8 µM
  relative viability: 0.614
NCI-H522; first compound 8 µM
  relative viability: 0.582
NCI-H1623; first compound 0.08 µM
  relative viability: 0.613
NCI-H1623; first compound 0.253 µM
  relative viability: 0.652
NCI-H1623; first compound 0.8 µM
  relative viability: 0.584
NCI-H1623; first compound 2.53 µM
  relative viability: 0.542
NCI-H1623; first compound 8 µM
  relative viability: 0.578
A549; first compound 0.08 µM
  relative viability: 0.185
A549; first compound 0.253 µM
  relative viability: 0.211
A549; first compound 0.8 µM
  relative viability: 0.186
A549; first compound 2.53 µM
  relative viability: 0.119
A549; first compound 8 µM
  relative viability: 0.121

## CC1(C)CCC(c2ccc(Cl)cc2)=C(CN2CCN(c3ccc(C(=O)NS(=O)(=O)c4ccc(N[C@H](CCN5CCOCC5)CSc5ccccc5)c(S(=O)(=O)C(F)(F)F)c4)cc3)CC2)C1 [Navitoclax] + COc1cc2c(Oc3ccc(NC(=O)C4(C(=O)Nc5ccc(F)cc5)CC4)cc3F)ccnc2cc1OCCCN1CCOCC1 [Foretinib] (partner 0.25 µM)
NCI-H1299; first compound 0.005 µM
  relative viability: 1.1
NCI-H1299; first compound 0.01581 µM
  relative viability: 1.1
NCI-H1299; first compound 0.05 µM
  relative viability: 1.12
NCI-H1299; first compound 0.1581 µM
  relative viability: 1.11
NCI-H1299; first compound 0.5 µM
  relative viability: 1.11
NCI-H1703; first compound 0.005 µM
  relative viability: 0.472
NCI-H1703; first compound 0.01581 µM
  relative viability: 0.369
NCI-H1703; first compound 0.05 µM
  relative viability: 0.416
NCI-H1703; first compound 0.1581 µM
  relative viability: 0.337
NCI-H1703; first compound 0.5 µM
  relative viability: 0.353
NCI-H1437; first compound 0.005 µM
  relative viability: 1.18
NCI-H1437; first compound 0.01581 µM
  relative viability: 1.3
NCI-H1437; first compound 0.05 µM
  relative viability: 1.1
NCI-H1437; first compound 0.1581 µM
  relative viability: 1.31
NCI-H1437; first compound 0.5 µM
  relative viability: 1.27
HCC-366; first compound 0.005 µM
  relative viability: 0.98
HCC-366; first compound 0.01581 µM
  relative viability: 0.82
HCC-366; first compound 0.1581 µM
  relative viability: 1
HCC-366; first compound 0.5 µM
  relative viability: 0.982
Calu-6; first compound 0.005 µM
  relative viability: 0.852
Calu-6; first compound 0.01581 µM
  relative viability: 0.921
Calu-6; first compound 0.05 µM
  relative viability: 0.937
Calu-6; first compound 0.1581 µM
  relative viability: 0.916
Calu-6; first compound 0.5 µM
  relative viability: 0.894
EBC-1; first compound 0.005 µM
  relative viability: 0.0939
EBC-1; first compound 0.01581 µM
  relative viability: 0.118
EBC-1; first compound 0.05 µM
  relative viability: 0.113
EBC-1; first compound 0.1581 µM
  relative viability: 0.103
EBC-1; first compound 0.5 µM
  relative viability: 0.0895
NCI-H1623; first compound 0.005 µM
  relative viability: 0.863
NCI-H1623; first compound 0.01581 µM
  relative viability: 0.981
NCI-H1623; first compound 0.05 µM
  relative viability: 0.781
NCI-H1623; first compound 0.1581 µM
  relative viability: 0.842
NCI-H1623; first compound 0.5 µM
  relative viability: 0.811
IA-LM; first compound 0.005 µM
  relative viability: 1.18
IA-LM; first compound 0.01581 µM
  relative viability: 1.2
IA-LM; first compound 0.05 µM
  relative viability: 1.36
IA-LM; first compound 0.1581 µM
  relative viability: 1.27
IA-LM; first compound 0.5 µM
  relative viability: 1.18
A549; first compound 0.005 µM
  relative viability: 0.887
A549; first compound 0.01581 µM
  relative viability: 1.03
A549; first compound 0.05 µM
  relative viability: 0.994
A549; first compound 0.1581 µM
  relative viability: 1.02
A549; first compound 0.5 µM
  relative viability: 0.916

## CC1(C)CCC(c2ccc(Cl)cc2)=C(CN2CCN(c3ccc(C(=O)NS(=O)(=O)c4ccc(N[C@H](CCN5CCOCC5)CSc5ccccc5)c(S(=O)(=O)C(F)(F)F)c4)cc3)CC2)C1 [Navitoclax] + N=C(N)NC(=N)NCCc1ccccc1 [Phenformin] (partner 250 µM)
NCI-H1437; first compound 0.005 µM
  relative viability: 0.269
NCI-H1437; first compound 0.01581 µM
  relative viability: 0.333
NCI-H1437; first compound 0.05 µM
  relative viability: 0.334
NCI-H1437; first compound 0.1581 µM
  relative viability: 0.314
NCI-H1437; first compound 0.5 µM
  relative viability: 0.41
HCC-366; first compound 0.005 µM
  relative viability: 0.708
HCC-366; first compound 0.01581 µM
  relative viability: 0.616
HCC-366; first compound 0.1581 µM
  relative viability: 0.619
HCC-366; first compound 0.5 µM
  relative viability: 0.588
HCC-44; first compound 0.005 µM
  relative viability: 0.173
HCC-44; first compound 0.01581 µM
  relative viability: 0.184
HCC-44; first compound 0.05 µM
  relative viability: 0.185
HCC-44; first compound 0.1581 µM
  relative viability: 0.131
HCC-44; first compound 0.5 µM
  relative viability: 0.197
NCI-H522; first compound 0.005 µM
  relative viability: 0.633
NCI-H522; first compound 0.01581 µM
  relative viability: 0.603
NCI-H522; first compound 0.05 µM
  relative viability: 0.701
NCI-H522; first compound 0.1581 µM
  relative viability: 0.695
NCI-H522; first compound 0.5 µM
  relative viability: 0.699
NCI-H1623; first compound 0.005 µM
  relative viability: 0.624
NCI-H1623; first compound 0.01581 µM
  relative viability: 0.671
NCI-H1623; first compound 0.05 µM
  relative viability: 0.58
NCI-H1623; first compound 0.1581 µM
  relative viability: 0.567
NCI-H1623; first compound 0.5 µM
  relative viability: 0.555
A549; first compound 0.005 µM
  relative viability: 0.146
A549; first compound 0.01581 µM
  relative viability: 0.19
A549; first compound 0.05 µM
  relative viability: 0.144
A549; first compound 0.1581 µM
  relative viability: 0.157
A549; first compound 0.5 µM
  relative viability: 0.146

## Oc1nc(-c2ccc(C(F)(F)F)cc2)nc2c1CSCC2 [XAV939] + COc1cc2c(Oc3ccc(NC(=O)C4(C(=O)Nc5ccc(F)cc5)CC4)cc3F)ccnc2cc1OCCCN1CCOCC1 [Foretinib] (partner 0.25 µM)
NCI-H1299; first compound 0.08 µM
  relative viability: 1.13
NCI-H1299; first compound 0.253 µM
  relative viability: 1.11
NCI-H1299; first compound 0.8 µM
  relative viability: 1.07
NCI-H1299; first compound 2.53 µM
  relative viability: 1.08
NCI-H1703; first compound 0.08 µM
  relative viability: 0.348
NCI-H1703; first compound 0.253 µM
  relative viability: 0.377
NCI-H1703; first compound 0.8 µM
  relative viability: 0.416
NCI-H1703; first compound 2.53 µM
  relative viability: 0.374
NCI-H1437; first compound 0.08 µM
  relative viability: 1.3
NCI-H1437; first compound 0.253 µM
  relative viability: 1.18
NCI-H1437; first compound 0.8 µM
  relative viability: 1.21
NCI-H1437; first compound 2.53 µM
  relative viability: 0.989
HCC-366; first compound 0.08 µM
  relative viability: 0.91
HCC-366; first compound 0.253 µM
  relative viability: 0.877
HCC-366; first compound 0.8 µM
  relative viability: 0.933
HCC-366; first compound 2.53 µM
  relative viability: 0.941
Calu-6; first compound 0.08 µM
  relative viability: 0.88
Calu-6; first compound 0.253 µM
  relative viability: 0.704
Calu-6; first compound 0.8 µM
  relative viability: 0.776
Calu-6; first compound 2.53 µM
  relative viability: 0.819
EBC-1; first compound 0.08 µM
  relative viability: 0.108
EBC-1; first compound 0.253 µM
  relative viability: 0.113
EBC-1; first compound 0.8 µM
  relative viability: 0.106
EBC-1; first compound 2.53 µM
  relative viability: 0.0948
NCI-H1623; first compound 0.08 µM
  relative viability: 0.826
NCI-H1623; first compound 0.253 µM
  relative viability: 0.75
NCI-H1623; first compound 0.8 µM
  relative viability: 0.703
NCI-H1623; first compound 2.53 µM
  relative viability: 0.677
IA-LM; first compound 0.08 µM
  relative viability: 1.29
IA-LM; first compound 0.253 µM
  relative viability: 0.968
IA-LM; first compound 0.8 µM
  relative viability: 1.09
IA-LM; first compound 2.53 µM
  relative viability: 0.729
A549; first compound 0.08 µM
  relative viability: 0.992
A549; first compound 0.8 µM
  relative viability: 0.883
A549; first compound 2.53 µM
  relative viability: 0.9

## Oc1nc(-c2ccc(C(F)(F)F)cc2)nc2c1CSCC2 [XAV939] + N=C(N)NC(=N)NCCc1ccccc1 [Phenformin] (partner 250 µM)
NCI-H1437; first compound 0.08 µM
  relative viability: 0.343
NCI-H1437; first compound 0.253 µM
  relative viability: 0.243
NCI-H1437; first compound 0.8 µM
  relative viability: 0.287
NCI-H1437; first compound 2.53 µM
  relative viability: 0.252
HCC-366; first compound 0.08 µM
  relative viability: 0.638
HCC-366; first compound 0.253 µM
  relative viability: 0.596
HCC-366; first compound 0.8 µM
  relative viability: 0.65
HCC-366; first compound 2.53 µM
  relative viability: 0.634
HCC-44; first compound 0.08 µM
  relative viability: 0.239
HCC-44; first compound 0.253 µM
  relative viability: 0.219
HCC-44; first compound 0.8 µM
  relative viability: 0.221
HCC-44; first compound 2.53 µM
  relative viability: 0.259
NCI-H522; first compound 0.08 µM
  relative viability: 0.599
NCI-H522; first compound 0.253 µM
  relative viability: 0.707
NCI-H522; first compound 0.8 µM
  relative viability: 0.594
NCI-H522; first compound 2.53 µM
  relative viability: 0.599
NCI-H1623; first compound 0.08 µM
  relative viability: 0.578
NCI-H1623; first compound 0.253 µM
  relative viability: 0.555
NCI-H1623; first compound 0.8 µM
  relative viability: 0.59
NCI-H1623; first compound 2.53 µM
  relative viability: 0.591
A549; first compound 0.08 µM
  relative viability: 0.136
A549; first compound 0.253 µM
  relative viability: 0.218
A549; first compound 0.8 µM
  relative viability: 0.129
A549; first compound 2.53 µM
  relative viability: 0.175
